Results taken from ChEMBL document CHEMBL1140044, “Structure-activity relationship study on anti-HIV 6-desfluoroquinolones” (J Med Chem, 2008).
≈ marks a conversion by molar mass, not a printed value. Calls of active or inactive are those of the source. The calls are words filed in the database; no cut-off is given here.

Legend:
[1] = Selectivity index, ratio of CC50 for human CEM cells to EC50 for HIV1 3B; format: toxicity, cell-based, CCRF-CEM; conditions: read-out: Ratio CC50/EC50
[2] = test system: Human immunodeficiency virus 2; assay: Antiviral activity against HIV2 ROD in MT4 cells assessed as inhibition of virus-induced cytopathogenicity by MTT assay; format: functional, organism-based; conditions: Human immunodeficiency virus 2, ROD
[3] = Selectivity index, ratio of CC50 for human CEM cells to EC50 for HIV2 ROD; format: toxicity, cell-based, CCRF-CEM; conditions: read-out: Ratio CC50/EC50
[4] = Cytotoxicity against mock-infected human MT4 cells after 5 days by MTT assay; format: cell-based
[5] = test system: Human immunodeficiency virus 1; assay: Antiviral activity against HIV1 3B in MT4 cells assessed as inhibition of virus-induced cytopathogenicity by MTT assay; format: functional, organism-based; conditions: Human immunodeficiency virus 1, 3B
[6] = Selectivity index, ratio of CC50 for human MT4 cells to EC50 for HIV1 3B; format: toxicity, cell-based; conditions: read-out: Ratio CC50/EC50
[7] = test system: Human immunodeficiency virus 1; assay: Antiviral activity against HIV1 3B in CEM cells assessed as inhibition of virus-induced syncytium formation after 4 days by microscopy; format: functional, organism-based; conditions: Human immunodeficiency virus 1, 3B, CCRF-CEM, 96 h
[8] = test system: Human immunodeficiency virus 2; assay: Antiviral activity against HIV2 ROD in CEM cells assessed as inhibition of virus-induced syncytium formation after 4 days by microscopy; format: functional, organism-based; conditions: Human immunodeficiency virus 2, ROD, CCRF-CEM, 96 h
[9] = Cytotoxicity against mock-infected human CEM cells by Coulter counter; format: cell-based; conditions: mock-infected CEM (CCRF-CEM) cells
[10] = Selectivity index, ratio of CC50 for human MT4 cells to EC50 for HIV2 ROD; format: toxicity, cell-based; conditions: read-out: Ratio CC50/EC50
[11] = biological target: T1, Protein Tat (Human immunodeficiency virus type 1 group M subtype B (isolate HXB2)(HIV-1)) (UniProt P04608); assay: Inhibition of HIV1 Tat-mediated LTR promoter transactivation in Tat/GFP plasmid expressed in Jurkat cells assessed as GFP gene expression by FACS analysis; format: cell-based; conditions: Human immunodeficiency virus 1
T1 sequence (whole entry): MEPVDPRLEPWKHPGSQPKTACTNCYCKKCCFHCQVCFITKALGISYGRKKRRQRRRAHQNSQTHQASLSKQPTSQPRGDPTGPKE

[12] = test system: Human immunodeficiency virus 1; assay: Inhibition of HIV1 3B production in chronically infected HUT78 cells assessed as virus p24 antigen production after 44 hrs by ELISA; format: functional, organism-based
[13] = Selectivity index, ratio of CC50 for human PBMC cells to EC50 for HIV1 3B; format: toxicity, cell-based; conditions: read-out: Ratio CC50/EC50
[14] = test system: Human immunodeficiency virus 1; assay: Antiviral activity against HIV1 3B in PBMC assessed as inhibition of p24 production after 7 days by ELISA; format: functional, organism-based; conditions: Human immunodeficiency virus 1, 3B, 168 h
[15] = Cytotoxicity against mock-infected human PBMC cells by trypan blue exclusion assay; format: cell-based
[16] = test system: Human immunodeficiency virus 1; assay: Antiviral activity against HIV1 3B in MT4 cells assessed as virus p24 antigen production administered at 10 hrs post infection by ELISA; format: functional, organism-based

| EC50 [7] [µg/mL] | EC50 [8] [µg/mL] | Activity [11] | EC50 [14] [µg/mL] | SMILES | selectivity ratio [1] | EC50 [2] [µg/mL] | selectivity ratio [3] | CC50 at 120 h [4] [µg/mL] | EC50 [5] [µg/mL] | selectivity ratio [6] | CC50 [9] [µg/mL] | selectivity ratio [10] | Activity [12] | selectivity ratio [13] | CC50 [15] [µg/mL] | Activity [16] |
| --- | --- | --- | --- | --- | --- | --- | --- | --- | --- | --- | --- | --- | --- | --- | --- | --- |
| 35 (≈ 95.8 µM) | 47.5 (≈ 130 µM) |  |  | Cn1cc(C(=O)O)c(=O)c2ccc(N3CCN(c4cnccn4)CC3)cc21 | > 3 | 16.4 (≈ 44.7 µM) | > 2 | > 125 | 58.2 (≈ 159 µM) | > 2 | > 100 | 8 |  |  |  |  |
| 0.024 (≈ 0.0571 µM) | 0.065 (≈ 0.155 µM) | Dose-dependent effect | 0.15 (≈ 0.357 µM) | Cn1cc(C(=O)O)c(=O)c2ccc(N3CCN(c4nc5ccccc5s4)CC3)cc21 | 281 | 0.04 (≈ 0.0951 µM) | 104 | 0.44 (≈ 1.05 µM) | 0.03 (≈ 0.0713 µM) | 14.7 | 6.74 (≈ 16 µM) | 5.5 | Active | 4 | 0.65 (≈ 1.55 µM) | Active |
|  |  |  |  | C/C(=N\O)c1cn(C)c2cc(N3CCN(c4ccccn4)CC3)c(N)cc2c1=O |  | > 125 |  | > 125 | > 125 |  |  |  |  |  |  |  |
|  |  |  |  | Cn1ccc(=O)c2cc(N)c(N3CCN(c4nc5ccccc5o4)CC3)cc21 |  | > 72.1 |  | 72.1 (≈ 192 µM) | > 72.1 | < 1 |  | < 1 |  |  |  |  |
|  |  |  |  | Cn1cc(C(N)=O)c(=O)c2cc(N)c(N3CCN(c4ccccn4)CC3)cc21 |  | > 125 |  | > 125 | > 125 |  |  |  |  |  |  |  |
| 3.35 (≈ 8.28 µM) | 14 (≈ 34.6 µM) | Dose-dependent effect |  | Cn1cc(C(=O)O)c(=O)c2ccc(N3CCN(c4nc5ccccc5o4)CC3)cc21 | > 30 | 11.9 (≈ 29.3 µM) | > 7 | > 125 | 5.76 (≈ 14.2 µM) | > 22 | > 100 | > 11 |  |  |  |  |
|  |  |  |  | Cn1ccc(=O)c2cc(N)c(N3CCN(c4nccs4)CC3)cc21 |  | > 89.5 |  | 89.5 (≈ 262 µM) | > 89.5 | < 1 |  | < 1 |  |  |  |  |
| 0.036 (≈ 0.0838 µM) | 0.075 (≈ 0.175 µM) |  |  | Cn1cc(C(=O)O)c(=O)c2cc(N)c(N3CCN(c4ccc5ccccc5n4)CC3)cc21 | 115 | 0.022 (≈ 0.0512 µM) | 55 | 0.21 (≈ 0.489 µM) | 0.035 (≈ 0.0815 µM) | 6 | 4.15 (≈ 9.66 µM) | 10 |  |  |  |  |
| 0.05 (≈ 0.116 µM) | 0.28 (≈ 0.65 µM) |  |  | Cn1cc(C(=O)O)c(=O)c2cc(N)c(N3CCN(c4cnc5ccccc5n4)CC3)cc21 | > 80 | 0.19 (≈ 0.441 µM) | > 14 | 3.2 (≈ 7.43 µM) | 0.18 (≈ 0.418 µM) | 18 | > 4 | 17 |  |  |  |  |
| 1.2 (≈ 3.29 µM) | 1.8 (≈ 4.94 µM) |  | 1.35 (≈ 3.7 µM) | Cn1cc(C(=O)O)c(=O)c2ccc(N3CCN(c4ccccn4)CC3)cc21 | > 83 | > 65.5 | > 56 | 65.5 (≈ 180 µM) | 19.2 (≈ 52.7 µM) | 3.4 | > 100 | < 1 |  | > 74 | > 100 |  |
|  |  |  |  | CCN(CCNc1cc2c(cc1N)c(=O)c(C(=O)O)cn2C)c1ccccn1 |  | > 16.9 |  | 16.9 (≈ 44.2 µM) | > 16.9 |  |  |  |  |  |  |  |
|  |  |  |  | Cn1ccc(=O)c2cc(N)c(N3CCN(c4ccccn4)CC3)cc21 |  | > 104 |  | 105 (≈ 313 µM) | > 105 | < 1 |  | < 1 |  |  |  |  |
|  |  |  |  | CC(=O)c1cn(C)c2cc(N3CCN(c4ccccn4)CC3)c(N)cc2c1=O |  | > 125 |  | > 125 | > 125 |  |  |  |  |  |  |  |
|  |  |  |  | Nc1cc2c(=O)c(C(=O)O)c[nH]c2cc1N1CCN(c2cccc(C(F)(F)F)c2)CC1 |  | 0.46 (≈ 1.06 µM) |  | 1.64 (≈ 3.79 µM) | 0.38 (≈ 0.879 µM) | 4 |  | 4 |  |  |  |  |
| 2.6 (≈ 7.02 µM) | 8 (≈ 21.6 µM) |  |  | Cn1cc(C(=O)O)c(=O)c2ccc(N3CCN(c4nccs4)CC3)cc21 | ≥ 38 | 12.7 (≈ 34.3 µM) | ≥ 12 | > 125 | 10 (≈ 27.1 µM) | > 12 | ≥ 100 | > 10 |  |  |  |  |
